# Patent US9056843B2, “Trifluoromethyl-oxadiazole derivatives and their use in the treatment of disease” (NOVARTIS AG, priority 2011, dated 2015)
# Tests used:
# Type in all cases: biochemical
# [1] = target: T1, Human recombinant HDAC4 (Homo sapiens (Human), UniProt P56524); assay: Test 1: HDAC4 assay (fluorogenic substrate, 10 μM acetyl-Gly-Ala-Lys(trifluoroacetyl)-AMC); settings: Test 1 (values indicated by an asterisk)
# Protocol: Test 1: HDAC4 Assay Description
# Human recombinant HDAC4 was expressed in full length form (aa 2-1084) in Sf9 insect cells (obtained from ATCC) using baculovirus generated with Bac-to-Bac system (Invitrogen). Test compounds were serially diluted to reach final test concentrations from 0.003 μM to 100 μM. HDAC4 and test compounds were incubated in 25 mM Tris buffer pH 8.0 containing 137 mM NaCl, 2.7 mM KCl, 1 mM MgCl2 and 0.05% (w/v) bovine serum albumine for 2 hours at room temperature in presence of 10 μM of acetyl-Gly-Ala-Lys(E-trifluoroacetyl)-AMC (AMC=7-amino-4-methyl coumarin) in a final volume of 200 μl. Control wells with HDAC4 only (positive control) and without HDAC4 (negative control) were included on the microplate. Bovine trypsin (10 μl of a 0.4 mg/ml solution) was added and the plate incubated for additional 15 minutes at room temperature. The plate was placed in a fluorescence microplate reader, and read at an excitation wavelength of 360 nm and an emission wavelength of 450 nm with a cut-off filter of 435 nm. Fluorescence values for all wells containing HDAC4 (positive control and wells with test compound) were corrected by subtracting negative control fluorescence values, and IC50 values were calculated by fitting the dose-response curves to a 4-parameter logistic function.
# HDAC4 IC50 values were obtained using Test 2, except those values indicated by an asterisk which were obtained using Test 1. NT=Not Tested
# [2] = target: T1, Human recombinant HDAC4; assay: Test 2: HDAC4 assay (fluorogenic substrate, 5 μM acetyl-Gly-Ala-Lys(ε-trifluoroacetyl)-AMC); settings: Test 2 (values without asterisk)
# In short: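 After the reaction, bovine trypsin (300 nM solution) was added for 15 min at RT to develop the signal; fluorescence read at 360/450 nm. No-enzyme background subtracted; IC50 from 4-parameter logistic fit of dose-response curves.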
# [3] = target: Human recombinant full length HDAC1 (Homo sapiens (Human), UniProt Q13547); assay: Test 3: HDAC1 assay; settings: substrate 5 μM acetyl-Gly-Ala-Lys(acetyl)-AMC
# In short: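 Baculovirus-expressed full-length human HDAC1 with 5 μM acetyl-Gly-Ala-Lys(acetyl)-AMC substrate, developed with trypsin 15 min at room temperature.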
# [4] = target: Human recombinant full length HDAC6 (Homo sapiens (Human), UniProt Q9UBN7); assay: Test 4: HDAC6 assay; settings: Test 4; substrate 5 μM acetyl-Gly-Ala-Lys(acetyl)-AMC
# In short: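 Baculovirus-expressed full-length recombinant human HDAC6 with 5 μM acetyl-Gly-Ala-Lys(acetyl)-AMC substrate, developed with trypsin 15 min at room temperature.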
# Human recombinant full length HDAC6, sequence (Q9UBN7 whole entry): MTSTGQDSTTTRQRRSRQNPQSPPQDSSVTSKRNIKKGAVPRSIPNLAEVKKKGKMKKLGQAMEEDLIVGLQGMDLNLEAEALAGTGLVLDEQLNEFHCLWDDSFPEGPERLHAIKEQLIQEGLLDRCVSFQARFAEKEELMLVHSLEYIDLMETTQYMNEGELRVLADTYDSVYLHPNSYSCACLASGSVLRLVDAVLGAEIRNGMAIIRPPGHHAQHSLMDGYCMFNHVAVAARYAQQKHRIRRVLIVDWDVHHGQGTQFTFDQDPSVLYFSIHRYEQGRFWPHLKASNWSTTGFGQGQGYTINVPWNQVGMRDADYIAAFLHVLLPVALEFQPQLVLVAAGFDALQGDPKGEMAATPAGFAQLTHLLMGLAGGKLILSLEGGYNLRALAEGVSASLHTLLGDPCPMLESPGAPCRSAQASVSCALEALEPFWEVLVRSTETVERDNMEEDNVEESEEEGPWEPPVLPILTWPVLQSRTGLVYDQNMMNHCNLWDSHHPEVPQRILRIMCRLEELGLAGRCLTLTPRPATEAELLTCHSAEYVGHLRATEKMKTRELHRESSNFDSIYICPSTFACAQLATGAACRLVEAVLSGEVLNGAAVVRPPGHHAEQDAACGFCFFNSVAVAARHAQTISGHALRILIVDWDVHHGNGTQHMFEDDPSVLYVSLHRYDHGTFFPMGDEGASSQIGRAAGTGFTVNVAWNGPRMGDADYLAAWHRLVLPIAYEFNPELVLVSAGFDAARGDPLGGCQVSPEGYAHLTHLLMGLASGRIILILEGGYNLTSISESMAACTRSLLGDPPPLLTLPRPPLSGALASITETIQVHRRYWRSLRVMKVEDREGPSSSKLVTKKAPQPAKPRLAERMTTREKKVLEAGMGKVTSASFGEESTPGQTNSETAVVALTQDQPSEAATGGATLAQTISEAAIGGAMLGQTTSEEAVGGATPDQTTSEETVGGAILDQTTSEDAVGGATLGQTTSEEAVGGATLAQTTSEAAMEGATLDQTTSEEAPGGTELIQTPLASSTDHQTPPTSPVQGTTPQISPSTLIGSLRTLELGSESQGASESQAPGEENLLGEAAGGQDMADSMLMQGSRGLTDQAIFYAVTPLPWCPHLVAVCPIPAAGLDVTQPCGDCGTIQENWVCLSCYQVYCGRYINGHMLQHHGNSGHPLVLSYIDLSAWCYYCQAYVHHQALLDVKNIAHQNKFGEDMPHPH
# T1 sequence (P56524 2-1084): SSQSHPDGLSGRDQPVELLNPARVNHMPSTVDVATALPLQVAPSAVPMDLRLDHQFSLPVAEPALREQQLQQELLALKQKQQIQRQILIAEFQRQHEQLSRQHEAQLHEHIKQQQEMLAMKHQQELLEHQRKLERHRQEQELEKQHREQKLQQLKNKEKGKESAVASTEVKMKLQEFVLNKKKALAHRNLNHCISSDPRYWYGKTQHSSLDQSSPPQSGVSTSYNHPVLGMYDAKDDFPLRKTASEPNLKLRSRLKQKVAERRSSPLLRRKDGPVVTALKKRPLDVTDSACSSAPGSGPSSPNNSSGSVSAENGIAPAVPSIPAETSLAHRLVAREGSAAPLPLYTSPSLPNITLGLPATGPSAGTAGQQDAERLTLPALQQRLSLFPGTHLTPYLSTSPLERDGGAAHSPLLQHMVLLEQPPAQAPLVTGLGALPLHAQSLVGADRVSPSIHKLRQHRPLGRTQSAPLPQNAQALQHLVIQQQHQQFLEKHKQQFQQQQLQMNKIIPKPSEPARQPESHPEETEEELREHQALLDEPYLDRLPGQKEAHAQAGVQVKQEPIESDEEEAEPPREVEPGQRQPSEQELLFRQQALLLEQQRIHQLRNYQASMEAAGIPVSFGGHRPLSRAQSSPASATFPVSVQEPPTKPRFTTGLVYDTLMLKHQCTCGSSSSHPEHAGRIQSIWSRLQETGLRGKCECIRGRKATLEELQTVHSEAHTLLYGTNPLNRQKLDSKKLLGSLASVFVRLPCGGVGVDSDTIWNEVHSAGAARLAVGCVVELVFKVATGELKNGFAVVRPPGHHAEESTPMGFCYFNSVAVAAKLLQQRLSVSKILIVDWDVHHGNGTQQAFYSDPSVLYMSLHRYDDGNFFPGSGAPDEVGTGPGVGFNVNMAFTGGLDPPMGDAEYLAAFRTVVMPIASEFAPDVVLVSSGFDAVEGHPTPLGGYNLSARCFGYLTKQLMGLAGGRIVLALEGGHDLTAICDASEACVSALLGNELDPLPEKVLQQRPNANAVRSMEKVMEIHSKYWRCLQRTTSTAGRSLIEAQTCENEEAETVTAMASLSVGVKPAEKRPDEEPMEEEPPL
# Human recombinant full length HDAC1, sequence (Q13547 whole entry): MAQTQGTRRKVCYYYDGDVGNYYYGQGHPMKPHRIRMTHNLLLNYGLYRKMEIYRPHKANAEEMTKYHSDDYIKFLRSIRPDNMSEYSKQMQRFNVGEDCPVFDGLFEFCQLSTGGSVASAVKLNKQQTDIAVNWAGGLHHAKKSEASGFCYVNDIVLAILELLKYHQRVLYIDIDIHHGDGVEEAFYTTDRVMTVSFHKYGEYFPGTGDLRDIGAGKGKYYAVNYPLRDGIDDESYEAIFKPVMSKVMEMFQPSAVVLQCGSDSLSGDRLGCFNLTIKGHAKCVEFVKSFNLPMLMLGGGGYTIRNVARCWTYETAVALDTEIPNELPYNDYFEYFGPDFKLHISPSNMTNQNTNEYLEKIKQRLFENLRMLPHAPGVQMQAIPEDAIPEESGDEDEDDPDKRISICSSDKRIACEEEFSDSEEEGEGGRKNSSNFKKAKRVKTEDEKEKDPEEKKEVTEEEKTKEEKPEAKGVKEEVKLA
smiles,measurement,setting,value
"O=S(=O)(Nc1cccc(F)c1)c1ccc(-c2noc(C(F)(F)F)n2)cc1 [Example 106, N-(3-fluorophenyl)-4-(5-(trifluoromethyl)-1,2,4-oxadiazol-3-yl)benzenesulfonamide]",IC50,[1],0.2 µM
"O=S(=O)(Nc1cccnc1)c1ccc(-c2noc(C(F)(F)F)n2)cc1 [Example 100, N-(ppyridin-3-yl)-4-(5-(trifluoromethyl)-1,2,4-oxadiazol-3-yl)benzenesulfonamide]",IC50,[1],0.07 µM
"CN(C)c1ccc(NC(=O)c2ccc(-c3noc(C(F)(F)F)n3)cc2)cc1 [Example 41, N-(4-(dimethylamino)phenyl)-4-(5-(trifluoromethyl)-1,2,4-oxadiazol-3-yl)benzamide]",IC50,[1],1.5 µM
"O=C(NC1CC1)c1ccc(-c2noc(C(F)(F)F)n2)cc1 [Example 19, N-cyclopropyl-4-(5-(trifluoromethyl)-1,2,4-oxadiazol-3-yl)benzamide]",IC50,[1],0.12 µM
"Cc1cc(NC(=O)c2ccc(-c3noc(C(F)(F)F)n3)cc2)ccn1 [Example 70, N-(2-methylpyridin-4-yl)-4-(5-(trifluoromethyl)-1,2,4-oxadiazol-3-yl)benzamide]",IC50,[1],0.09 µM
"CCN(CC)C[C@H](C)NC(=O)c1ccc(-c2noc(C(F)(F)F)n2)cc1 [Example 133, (S)—N-(1-(diethylamino)propan-2-yl)-4-(5-(trifluoromethyl)-1,2,4-oxadiazol-3-yl)benzamide]",IC50,[1],0.048 µM
"CCN(CC)C[C@@H](C)NC(=O)c1ccc(-c2noc(C(F)(F)F)n2)cc1 [Example 132, (R)—N-(1-(diethylamino)propan-2-yl)-4-(5-(trifluoromethyl)-1,2,4-oxadiazol-3-yl)benzamide]",IC50,[2],0.005 µM
same,IC50,[3],9.2 µM
same,IC50,[4],8.3 µM
"COc1cc(NC(=O)c2ccc(-c3noc(C(F)(F)F)n3)cc2)ccn1 [Example 67, N-(2-methoxypyridin-4-yl)-4-(5-(trifluoromethyl)-1,2,4-oxadiazol-3-yl)benzamide]",IC50,[2],0.16 µM
same,IC50,[3],> 10 µM
same,IC50,[4],8.3 µM
"N#Cc1cc(NC(=O)c2ccc(-c3noc(C(F)(F)F)n3)cc2)ccn1 [Example 73, N-(2-cyanopyridin-4-yl)-4-(5-(trifluoromethyl)-1,2,4-oxadiazol-3-yl)benzamide]",IC50,[2],0.053 µM
same,IC50,[3],> 10 µM
same,IC50,[4],6.1 µM
"O=C(N[C@@H]1CCNC1)c1ccc(-c2noc(C(F)(F)F)n2)cc1 [Example 86, (R)—N-(pyyrrolidin-3-yl)-4-(5-(trifluoromethyl)-1,2,4-oxadiazol-3-yl)benzamide]",IC50,[2],0.026 µM
same,IC50,[3],> 10 µM
same,IC50,[4],> 10 µM
"Cc1ccccc1NS(=O)(=O)c1ccc(-c2noc(C(F)(F)F)n2)cc1 [Example 103, N-o-tolyl-4-(5-trifluoromethyl-[1,2,4]oxadiazol-3-yl)-benzenesulfonamide]",IC50,[2],0.08 µM
same,IC50,[3],> 10 µM
same,IC50,[4],0.7 µM
"C[C@H](CN1CCOCC1)NC(=O)c1ccc(-c2noc(C(F)(F)F)n2)cc1 [Example 147, (R)—N-(1-morpholinopropan-2-yl)-4-(5-(trifluoromethyl)-1,2,4-oxadiazol-3-yl)benzamide]",IC50,[2],0.3 µM
same,IC50,[3],> 10 µM
same,IC50,[4],6.7 µM
"O=C(NC1CCCCC1O)c1ccc(-c2noc(C(F)(F)F)n2)cc1 (stereo not drawn) [Example 61, N-(2-hydroxycyclohexyl)-4-(5-(trifluoromethyl)-1,2,4-oxadiazol-3-yl)benzamide]",IC50,[2],0.79 µM
same,IC50,[3],> 10 µM
same,IC50,[4],7.1 µM
"CCCCN(C)C[C@@H](C)NC(=O)c1ccc(-c2noc(C(F)(F)F)n2)cc1F [Example 151, (R)—N-(1-(butyl(methyl)amino)propan-2-yl)-2-fluoro-4-(5-(trifluoromethyl)-1,2,4-oxadiazol-3-yl)benzamide]",IC50,[2],0.0018 µM
same,IC50,[3],2.7 µM
same,IC50,[4],2.6 µM
"CC(CN(C)C)N(C)C(=O)c1ccc(-c2noc(C(F)(F)F)n2)cc1 (stereo not drawn) [Example 94, N-(1-(dimethylamino)propan-2-yl)-N-methyl-4-(5-(trifluoromethyl)-1,2,4-oxadiazol-3-yl)benzamide]",IC50,[2],0.52 µM
same,IC50,[3],> 10 µM
same,IC50,[4],> 10 µM
"O=C(NC1CCNC1)c1ccc(-c2noc(C(F)(F)F)n2)cc1 (stereo not drawn) [Example 80, N-(pyrrolidin-3-yl)-4-(5-(trifluoromethyl)-1,2,4-oxadiazol-3-yl)benzamide]",IC50,[2],0.47 µM
same,IC50,[3],> 10 µM
same,IC50,[4],> 10 µM
"O=C(NC1CCCC1)c1ccc(-c2noc(C(F)(F)F)n2)cc1 [Example 29, N-cyclopentyl-4-(5-(trifluoromethyl)-1,2,4-oxadiazol-3-yl)benzamide]",IC50,[2],1.2 µM
same,IC50,[3],> 10 µM
same,IC50,[4],> 10 µM
"CCN(CC)CCNC(=O)c1ccc(-c2noc(C(F)(F)F)n2)cc1 [Example 155, N-(2-(diethylamino)ethyl)-4-(5-(trifluoromethyl)-1,2,4-oxadiazol-3-yl)benzamide]",IC50,[2],0.012 µM
same,IC50,[3],2.9 µM
same,IC50,[4],2.6 µM
"O=C(NCCNc1ccccc1)c1ccc(-c2noc(C(F)(F)F)n2)cc1 [Example 158, N-(2-(phenylamino)ethyl)-4-(5-(trifluoromethyl)-1,2,4-oxadiazol-3-yl)benzamide]",IC50,[2],0.36 µM
same,IC50,[3],8.8 µM
same,IC50,[4],1.8 µM
"CC(CNC(=O)c1ccc(-c2noc(C(F)(F)F)n2)cc1)N(C)C (stereo not drawn) [Example 51, N-(2-(dimethylamino)propyl)-4-(5-(trifluoromethyl)-1,2,4-oxadiazol-3-yl)benzamide]",IC50,[2],0.09 µM
same,IC50,[3],> 10 µM
same,IC50,[4],10 µM
"CCCN(C)C[C@@H](C)NC(=O)c1ccc(-c2noc(C(F)(F)F)n2)cc1F [Example 143, (R)-2-fluoro-N-(1-(methyl(propyl)amino)propan-2-yl)-4-(5-(trifluoromethyl)-1,2,4-oxadiazol-3-yl)benzamide]",IC50,[2],0.0012 µM
same,IC50,[3],5.8 µM
same,IC50,[4],3.3 µM
